Calls of active or inactive are those of the source.
Legend:
[1] = target: DNA dC->dU-editing enzyme APOBEC-3G (Homo sapiens, UniProt Q9HC16); experiment: Dose Response confirmation of small molecule APOBEC3G DNA Deaminase Inhibitors via a fluorescence-based single-stranded DNA deaminase assay. [Related pubchem assays (depositor defined):AID493012, AID493028]; assay type: functional
[2] = target: DNA (cytosine-5)-methyltransferase 1 (Homo sapiens, UniProt P26358); experiment: DNMT1 methyltransferase inhibitors, confirmation, biochemical, fluorescent molecular beacon (AID 602386); assay type: functional
[3] = target: T1, Small ubiquitin-related modifier 1 (Homo sapiens, UniProt P63165); experiment: inhibitors of SUMO1 partner interactions, dose response, biochemical, FRET (AID 624383); assay type: functional; conditions: read-out: IC50_Mean
[4] = target: Induced myeloid leukemia cell differentiation protein Mcl-1 (Homo sapiens, UniProt Q07820); assay type: functional
[5] = target: T2, Carboxy-terminal domain RNA polymerase II polypeptide A small phosphatase 1 (Homo sapiens, UniProt Q9GZU7); experiment: inhibitors of CTDSP1, concentration-response testing, biochemical assay, absorbance-based, actives from ultra-high-throughput screening (AID 540297); assay type: functional
T2 sequence (Q9GZU7 whole entry): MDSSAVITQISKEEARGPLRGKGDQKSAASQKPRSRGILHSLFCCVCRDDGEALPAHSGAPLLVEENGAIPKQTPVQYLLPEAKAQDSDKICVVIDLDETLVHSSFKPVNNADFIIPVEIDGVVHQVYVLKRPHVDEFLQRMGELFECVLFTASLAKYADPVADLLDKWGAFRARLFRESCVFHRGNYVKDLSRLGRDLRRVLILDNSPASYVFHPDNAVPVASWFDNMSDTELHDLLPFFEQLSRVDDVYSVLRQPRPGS

[6] = target: DNA dC->dU-editing enzyme APOBEC-3A (Homo sapiens, UniProt P31941); experiment: APOBEC3A DNA deaminase inhibitors, dose response, biochemical (AID 504722); assay type: functional
[7] = target: T3, Apoptotic protease-activating factor 1 (Homo sapiens, UniProt O14727); experiment: activation of Apaf-1 mediated apoptosis – fluorescent, uHTS hits, dose response (AID 588554); assay type: functional
T3 sequence (O14727 whole entry): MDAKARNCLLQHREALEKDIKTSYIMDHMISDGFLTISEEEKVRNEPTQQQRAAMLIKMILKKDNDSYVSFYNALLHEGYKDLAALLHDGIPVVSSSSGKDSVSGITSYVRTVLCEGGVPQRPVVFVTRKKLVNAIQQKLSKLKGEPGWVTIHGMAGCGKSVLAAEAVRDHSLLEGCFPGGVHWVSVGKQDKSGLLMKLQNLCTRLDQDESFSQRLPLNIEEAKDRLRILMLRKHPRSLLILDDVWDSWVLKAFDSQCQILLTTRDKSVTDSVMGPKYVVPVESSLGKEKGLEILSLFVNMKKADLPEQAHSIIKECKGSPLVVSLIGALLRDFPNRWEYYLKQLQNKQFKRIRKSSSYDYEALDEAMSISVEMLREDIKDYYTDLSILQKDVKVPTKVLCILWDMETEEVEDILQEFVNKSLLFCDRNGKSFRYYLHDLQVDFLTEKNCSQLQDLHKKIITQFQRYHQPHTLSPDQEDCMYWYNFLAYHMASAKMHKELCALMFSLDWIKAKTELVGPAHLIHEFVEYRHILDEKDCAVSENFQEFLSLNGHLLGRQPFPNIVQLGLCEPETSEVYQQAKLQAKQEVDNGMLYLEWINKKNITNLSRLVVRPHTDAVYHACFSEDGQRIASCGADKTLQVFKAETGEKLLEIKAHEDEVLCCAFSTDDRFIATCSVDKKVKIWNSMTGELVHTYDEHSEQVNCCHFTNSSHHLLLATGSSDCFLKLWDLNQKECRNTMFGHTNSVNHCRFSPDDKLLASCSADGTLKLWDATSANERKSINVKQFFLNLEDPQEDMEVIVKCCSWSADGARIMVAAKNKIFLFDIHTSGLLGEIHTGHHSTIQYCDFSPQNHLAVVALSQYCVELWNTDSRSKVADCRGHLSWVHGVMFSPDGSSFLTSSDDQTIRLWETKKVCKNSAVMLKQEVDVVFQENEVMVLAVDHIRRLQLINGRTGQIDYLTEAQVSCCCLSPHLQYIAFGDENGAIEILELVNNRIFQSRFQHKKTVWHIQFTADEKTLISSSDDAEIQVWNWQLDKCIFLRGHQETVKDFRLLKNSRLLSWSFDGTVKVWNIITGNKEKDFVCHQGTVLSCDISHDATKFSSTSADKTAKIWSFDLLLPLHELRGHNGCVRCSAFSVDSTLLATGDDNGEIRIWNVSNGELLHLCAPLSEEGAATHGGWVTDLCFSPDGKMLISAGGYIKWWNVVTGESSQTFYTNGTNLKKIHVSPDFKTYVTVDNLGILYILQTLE

[8] = target: T1, Small ubiquitin-related modifier 1; experiment: inhibitors of SUMO1 peptide binding, dose response, biochemical, fluorescence polarization, uHTS hits (AID 624382); assay type: functional; conditions: read-out: IC50_Mean
[9] = growth induction of Burl-1 ts yeast mutant, dose response, counter-screen for SUMOylation pathway inhibitor project, whole organism, S. cerevisiae, luminescence (AID 463199); assay type: functional
[10] = target: T4, Dual specificity protein phosphatase 3 (Homo sapiens, UniProt P51452); experiment: VHR1 phosphatase inhibitors, biochemical (AID 1878)
[11] = target: E3 ubiquitin-protein ligase XIAP (Homo sapiens, UniProt P98170); experiment: Counter Screen using XIAP-Bir3 for Chemical Antagonists of Bir1/2 domains of IAP-family anti-apoptotic proteins. [Related pubchem assays (depositor defined):AID1018, AID1449, AID1514, AID1638, AID1749, AID1750, AID488957, AID488963]
[12] = target: T5, Voltage-gated N-type calcium channel alpha-1B subunit/Amyloid beta A4 precursor protein-binding family A member 1 (Homo sapiens, UniProt Q00975+Q02410); assay type: protein assay
[13] = target: T6, Dual specificity protein phosphatase 6 (Rattus norvegicus, UniProt Q64346); experiment: MKP-3 phosphatase inhibitors, primary screen, biochemical, rat enzyme, in vitro (AID 425)
T6 sequence (Q64346 whole entry): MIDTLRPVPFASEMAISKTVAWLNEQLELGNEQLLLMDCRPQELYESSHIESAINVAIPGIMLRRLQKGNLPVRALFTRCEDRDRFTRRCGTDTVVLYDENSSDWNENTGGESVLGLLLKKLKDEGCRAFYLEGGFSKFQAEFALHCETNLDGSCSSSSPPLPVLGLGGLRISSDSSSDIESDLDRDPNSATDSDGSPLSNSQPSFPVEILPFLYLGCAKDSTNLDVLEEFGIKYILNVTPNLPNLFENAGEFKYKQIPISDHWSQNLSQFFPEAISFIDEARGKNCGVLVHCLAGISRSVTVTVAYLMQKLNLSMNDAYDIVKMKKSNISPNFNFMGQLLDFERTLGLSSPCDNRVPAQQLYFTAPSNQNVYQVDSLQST

[14] = target: T5, Voltage-gated N-type calcium channel alpha-1B subunit/Amyloid beta A4 precursor protein-binding family A member 1; assay type: protein assay; remark: listed apart in the source
[15] = target: T4, Dual specificity protein phosphatase 3; experiment: VHR1 phosphatase inhibitors, primary screen, biochemical, absorbance, uHTS (AID 1654)
Phosphomannomutase 2 = Phosphomannomutase 2 (Homo sapiens, UniProt O15305); experiment: Counter screen SAR assay for PMM2 inhibitors via a fluorescence intensity assay. [Related pubchem assays (depositor defined):AID1545, AID1574]
[16] = target: T7, Mannose-6-phosphate isomerase (Homo sapiens, UniProt P34949); experiment: PMI enzyme inhibitors, confirmation, biochemical, fluorescence intensity (AID 1535)
T7 sequence (P34949 whole entry): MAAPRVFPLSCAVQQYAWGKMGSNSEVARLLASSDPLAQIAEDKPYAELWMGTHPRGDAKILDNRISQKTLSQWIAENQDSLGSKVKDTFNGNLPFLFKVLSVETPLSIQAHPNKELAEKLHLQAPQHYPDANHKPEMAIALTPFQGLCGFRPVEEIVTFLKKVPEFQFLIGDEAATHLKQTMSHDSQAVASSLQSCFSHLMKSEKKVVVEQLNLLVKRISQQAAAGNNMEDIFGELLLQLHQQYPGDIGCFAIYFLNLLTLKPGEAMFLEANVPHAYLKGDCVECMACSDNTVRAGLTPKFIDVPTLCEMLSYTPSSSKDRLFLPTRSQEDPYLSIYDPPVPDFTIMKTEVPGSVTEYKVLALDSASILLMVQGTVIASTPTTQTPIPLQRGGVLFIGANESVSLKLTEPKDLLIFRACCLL

T4 sequence (P51452 whole entry): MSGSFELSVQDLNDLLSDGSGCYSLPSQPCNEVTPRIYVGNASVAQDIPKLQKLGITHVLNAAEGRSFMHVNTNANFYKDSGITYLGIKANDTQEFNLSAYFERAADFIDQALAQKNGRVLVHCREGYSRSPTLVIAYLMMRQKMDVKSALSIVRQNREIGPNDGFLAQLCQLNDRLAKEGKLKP
T1 sequence (P63165 whole entry): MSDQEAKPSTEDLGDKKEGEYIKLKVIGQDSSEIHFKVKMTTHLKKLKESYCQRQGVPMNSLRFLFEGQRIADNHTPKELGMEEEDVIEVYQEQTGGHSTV
T5 sequence (Q00975 whole entry): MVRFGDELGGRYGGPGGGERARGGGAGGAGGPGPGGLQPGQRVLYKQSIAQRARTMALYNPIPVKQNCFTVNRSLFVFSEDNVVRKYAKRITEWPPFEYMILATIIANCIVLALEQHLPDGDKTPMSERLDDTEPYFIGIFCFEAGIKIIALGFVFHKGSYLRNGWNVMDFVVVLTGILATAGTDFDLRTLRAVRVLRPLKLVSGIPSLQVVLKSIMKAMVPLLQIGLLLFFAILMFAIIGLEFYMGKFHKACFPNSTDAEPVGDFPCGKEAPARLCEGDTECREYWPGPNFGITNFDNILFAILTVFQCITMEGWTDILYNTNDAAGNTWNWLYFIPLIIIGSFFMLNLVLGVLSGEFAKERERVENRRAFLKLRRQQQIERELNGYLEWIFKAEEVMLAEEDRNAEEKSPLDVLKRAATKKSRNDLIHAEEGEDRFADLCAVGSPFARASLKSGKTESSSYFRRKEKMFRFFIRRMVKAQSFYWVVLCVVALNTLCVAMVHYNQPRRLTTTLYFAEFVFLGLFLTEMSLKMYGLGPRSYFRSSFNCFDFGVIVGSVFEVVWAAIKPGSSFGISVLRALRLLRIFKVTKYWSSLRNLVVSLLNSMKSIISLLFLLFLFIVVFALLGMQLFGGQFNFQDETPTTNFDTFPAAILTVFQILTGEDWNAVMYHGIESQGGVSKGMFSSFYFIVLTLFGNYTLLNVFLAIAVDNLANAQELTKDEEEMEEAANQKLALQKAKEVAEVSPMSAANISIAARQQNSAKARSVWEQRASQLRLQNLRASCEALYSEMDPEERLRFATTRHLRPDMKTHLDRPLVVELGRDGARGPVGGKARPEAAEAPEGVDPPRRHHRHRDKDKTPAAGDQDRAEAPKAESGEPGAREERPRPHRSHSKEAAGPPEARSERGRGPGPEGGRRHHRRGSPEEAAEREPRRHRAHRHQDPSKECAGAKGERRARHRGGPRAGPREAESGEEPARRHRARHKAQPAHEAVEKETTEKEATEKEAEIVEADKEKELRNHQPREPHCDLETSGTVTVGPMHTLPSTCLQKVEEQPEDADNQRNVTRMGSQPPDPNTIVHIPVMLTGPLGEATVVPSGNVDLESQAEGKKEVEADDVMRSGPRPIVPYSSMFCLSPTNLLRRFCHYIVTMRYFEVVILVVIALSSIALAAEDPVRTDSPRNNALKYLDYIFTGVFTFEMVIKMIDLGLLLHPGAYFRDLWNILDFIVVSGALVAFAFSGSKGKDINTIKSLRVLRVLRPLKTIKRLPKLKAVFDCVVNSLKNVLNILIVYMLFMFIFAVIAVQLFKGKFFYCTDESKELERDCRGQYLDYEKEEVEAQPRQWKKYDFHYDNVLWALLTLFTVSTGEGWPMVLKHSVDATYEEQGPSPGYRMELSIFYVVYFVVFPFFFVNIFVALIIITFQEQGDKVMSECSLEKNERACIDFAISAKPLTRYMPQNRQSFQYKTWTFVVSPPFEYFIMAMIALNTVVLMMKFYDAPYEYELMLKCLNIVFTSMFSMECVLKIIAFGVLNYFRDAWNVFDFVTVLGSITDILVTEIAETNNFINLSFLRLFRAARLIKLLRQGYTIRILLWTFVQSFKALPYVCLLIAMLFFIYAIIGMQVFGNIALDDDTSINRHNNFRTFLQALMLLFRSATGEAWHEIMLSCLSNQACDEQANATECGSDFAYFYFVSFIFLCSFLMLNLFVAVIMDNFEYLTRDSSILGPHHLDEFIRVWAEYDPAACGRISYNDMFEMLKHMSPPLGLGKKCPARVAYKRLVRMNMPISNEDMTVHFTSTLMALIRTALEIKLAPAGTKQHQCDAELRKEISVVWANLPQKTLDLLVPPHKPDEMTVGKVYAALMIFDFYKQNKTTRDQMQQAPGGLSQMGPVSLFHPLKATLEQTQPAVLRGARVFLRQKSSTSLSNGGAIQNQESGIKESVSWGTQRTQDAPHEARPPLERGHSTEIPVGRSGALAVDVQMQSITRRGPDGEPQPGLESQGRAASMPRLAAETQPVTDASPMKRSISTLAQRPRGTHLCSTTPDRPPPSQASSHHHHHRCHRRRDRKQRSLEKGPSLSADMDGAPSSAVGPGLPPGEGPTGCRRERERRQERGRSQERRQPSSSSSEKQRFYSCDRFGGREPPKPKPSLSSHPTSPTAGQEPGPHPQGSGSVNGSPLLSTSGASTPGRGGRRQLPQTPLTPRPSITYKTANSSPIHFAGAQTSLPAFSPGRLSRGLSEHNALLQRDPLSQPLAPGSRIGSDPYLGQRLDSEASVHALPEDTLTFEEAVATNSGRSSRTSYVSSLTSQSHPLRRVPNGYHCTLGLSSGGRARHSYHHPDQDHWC
T5 sequence (Q02410 whole entry): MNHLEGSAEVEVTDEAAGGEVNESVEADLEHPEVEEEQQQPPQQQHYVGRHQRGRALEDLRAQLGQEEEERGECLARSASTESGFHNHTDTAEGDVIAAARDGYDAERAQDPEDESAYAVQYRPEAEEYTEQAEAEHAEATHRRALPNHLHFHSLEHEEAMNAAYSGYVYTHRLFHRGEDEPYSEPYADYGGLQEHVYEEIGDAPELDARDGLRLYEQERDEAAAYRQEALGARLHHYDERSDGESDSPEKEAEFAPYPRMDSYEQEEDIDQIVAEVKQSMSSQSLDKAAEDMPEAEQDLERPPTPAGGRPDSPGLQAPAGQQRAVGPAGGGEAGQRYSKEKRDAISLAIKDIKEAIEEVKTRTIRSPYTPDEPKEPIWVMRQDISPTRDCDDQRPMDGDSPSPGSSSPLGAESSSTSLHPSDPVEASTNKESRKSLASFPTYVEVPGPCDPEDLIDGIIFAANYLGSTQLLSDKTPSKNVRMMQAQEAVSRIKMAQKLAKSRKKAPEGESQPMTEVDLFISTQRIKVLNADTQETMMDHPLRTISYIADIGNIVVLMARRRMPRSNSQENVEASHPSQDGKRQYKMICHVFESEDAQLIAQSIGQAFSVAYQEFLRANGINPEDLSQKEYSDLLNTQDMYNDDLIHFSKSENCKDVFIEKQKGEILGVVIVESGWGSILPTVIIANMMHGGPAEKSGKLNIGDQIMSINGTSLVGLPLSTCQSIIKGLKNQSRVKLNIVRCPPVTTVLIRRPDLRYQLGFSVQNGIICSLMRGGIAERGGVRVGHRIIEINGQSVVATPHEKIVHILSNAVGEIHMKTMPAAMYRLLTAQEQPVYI
Sequence of Phosphomannomutase 2 (O15305 whole entry): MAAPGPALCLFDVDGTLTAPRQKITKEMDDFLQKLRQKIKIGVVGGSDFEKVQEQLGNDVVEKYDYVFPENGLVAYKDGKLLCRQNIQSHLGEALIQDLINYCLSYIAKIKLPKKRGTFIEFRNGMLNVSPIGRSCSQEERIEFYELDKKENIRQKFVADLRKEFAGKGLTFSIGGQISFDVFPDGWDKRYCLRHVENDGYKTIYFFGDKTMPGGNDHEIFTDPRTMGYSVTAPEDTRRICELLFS
Sequence of DNA dC->dU-editing enzyme APOBEC-3G (Q9HC16 whole entry): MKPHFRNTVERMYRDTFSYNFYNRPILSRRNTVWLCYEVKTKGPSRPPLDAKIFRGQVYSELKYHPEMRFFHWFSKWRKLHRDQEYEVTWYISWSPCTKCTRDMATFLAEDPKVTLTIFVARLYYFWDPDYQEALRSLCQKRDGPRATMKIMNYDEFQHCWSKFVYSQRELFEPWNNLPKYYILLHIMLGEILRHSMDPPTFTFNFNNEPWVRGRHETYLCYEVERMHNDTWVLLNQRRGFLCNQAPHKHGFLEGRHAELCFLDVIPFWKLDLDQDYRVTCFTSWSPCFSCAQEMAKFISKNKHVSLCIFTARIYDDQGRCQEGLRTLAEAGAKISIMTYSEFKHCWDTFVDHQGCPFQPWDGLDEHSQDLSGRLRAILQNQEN
Sequence of Induced myeloid leukemia cell differentiation protein Mcl-1 (Q07820 whole entry, the tested form may be a part): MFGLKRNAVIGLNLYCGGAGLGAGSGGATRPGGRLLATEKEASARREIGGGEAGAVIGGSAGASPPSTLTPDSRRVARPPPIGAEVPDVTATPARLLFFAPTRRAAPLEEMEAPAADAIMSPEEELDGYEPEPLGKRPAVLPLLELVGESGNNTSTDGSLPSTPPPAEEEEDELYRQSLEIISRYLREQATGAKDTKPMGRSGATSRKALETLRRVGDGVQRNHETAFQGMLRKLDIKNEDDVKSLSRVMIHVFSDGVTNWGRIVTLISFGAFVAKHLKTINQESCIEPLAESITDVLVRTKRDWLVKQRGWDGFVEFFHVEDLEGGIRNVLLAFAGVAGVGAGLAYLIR
Sequence of E3 ubiquitin-protein ligase XIAP (P98170 whole entry): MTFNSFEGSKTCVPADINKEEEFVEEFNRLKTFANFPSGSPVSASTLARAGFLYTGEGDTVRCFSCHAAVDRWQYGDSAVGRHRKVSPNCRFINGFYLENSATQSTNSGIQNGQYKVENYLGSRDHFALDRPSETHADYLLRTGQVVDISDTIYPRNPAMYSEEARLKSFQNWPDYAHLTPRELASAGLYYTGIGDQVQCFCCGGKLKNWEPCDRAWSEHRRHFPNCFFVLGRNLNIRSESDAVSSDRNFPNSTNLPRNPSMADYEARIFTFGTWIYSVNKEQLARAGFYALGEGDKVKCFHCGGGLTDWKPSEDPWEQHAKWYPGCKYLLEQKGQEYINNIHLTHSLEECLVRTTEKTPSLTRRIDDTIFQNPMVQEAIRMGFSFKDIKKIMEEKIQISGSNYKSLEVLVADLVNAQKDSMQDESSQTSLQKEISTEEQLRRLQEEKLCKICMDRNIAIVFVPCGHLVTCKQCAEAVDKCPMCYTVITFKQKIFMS

## C=C(C)C(=O)Nc1cccc(C2=NOC3(C2)C[C@@H](C(N)=O)N(C(=O)C(=C)C)C3)c1 (some centres not stated)
[1]
  IC50: 5.94 µM (active)
[2]
  IC50: 4.95 µM (active)
[3]
  IC50: 2.56 µM (active)
[4]
  IC50: 3.08 µM (not active)
[5]
  IC50: 1.89 µM (active)
[6]
  IC50: > 100 µM (inactive)
[7]
  EC50: 1.24 µM (active)
[8]
  IC50: > 66.6 µM (inactive)

## COc1ccc(Cl)cc1N(C(=O)c1ccco1)C(C(=O)NC1CCCC1)c1ccncc1 (configuration not stated)
[9]
  AC50: 104 µM (active)

## CCOC(=O)C1=C(C)N=c2s/c(=C\c3ccc(OCC(=O)O)cc3)c(=O)n2C1c1ccc(Cl)cc1 (configuration not stated)
[10]
  IC50: 8.8 µM (active)
[11]
  IC50: > 20 µM (inactive)
[12]
  IC50: 33.7 µM (active)
[13]
  IC50: > 158 µM (not active)
[14]
  IC50: > 50 µM (inactive)
[15]
  IC50: 11.3 µM (active)

## FC(F)(F)Oc1cccc(/N=c2\ssnc2Cl)c1
Phosphomannomutase 2
  IC50: > 100 µM (inactive)
[16]
  IC50: 27.5 µM (active)

From ChEMBL document CHEMBL1201862, “PubChem BioAssay data set” (2004)
